# Source: article PMC10610044, “The Cocrystal of Ubiquinol: Improved Stability and Bioavailability” (Pharmaceutics, 2023)
# Key:
# [1] = set-up: method as in PMID 16551570; conditions: oral; cited from earlier work
# [2] = set-up: method as in PMID 7666987; conditions: 5-year period; cited from earlier work
# [3] = Open stability study (25 °C, 60% RH, open conditions); format: physicochemical; conditions: after 4 weeks, content at day 0 set as 100%
# Description: Open stability was conducted at 25 °C, 60% RH, under open conditions without package and nitrogen protection. Accelerated stability was conducted at 40 °C, 75% RH, packaged with aluminum foil bags. The ubiquinol polymorph II and UQ-NC cocrystal were taken out at various intervals during exposure (open stability at 0, 3, 7, 14, 21, and 28 days and accelerated stability at 0, 1, 2, 3, and 6 months).
# An Agilent 1260 series HPLC was used to determine the content of ubiquinol. The HPLC was equipped with a quaternary pump (G1311C), diode-array detector (G1315D), and a 4.6 mm × 100 mm, 2.7 μm packing L1 column. The detector was set at 290 nm. A mobile phase consisting of methanol and n-hexane (85/15, v/v) was run for 10 min at 1.5 mL/min. An injection of 20 μL was performed and the column temperature was set at 35 °C.
# [4] = set-up: method as in earlier work; conditions: after four weeks, open conditions, 25 °C; cited from earlier work
# [5] = Pharmacokinetic study in male Sprague Dawley rats, plasma total coenzyme Q10; format: in vivo; conditions: rat, gavage, 100 mg/kg as ubiquinol equivalents
# Description: Pharmacokinetic experiments were conducted on male Sprague Dawley rats to compare the oral exposure of the UQ-NC cocrystal and the ubiquinol marketed form II. The two ubiquinol samples were dispersed homogeneously in 0.5% CMC-Na (sodium carboxymethylcellulose) and 0.5% tween 80 aqueous solution to obtain the suspension of 10 mg/mL of ubiquinol. Twelve male Sprague Dawley rats weighing […] were randomly allocated into two groups (six rats in each group). Each received gavage administration at a dose of 100 mg/kg body (expressed as ubiquinol equivalents). After this administration, approximately 200 μL of blood sample was collected from the orbital sinus into heparinized tubes at 0, 1, 2, 3, 4, 6, 8, and 24 h for each rat.
# In this experiment, the whole process was protected from light. An aliquot of 100 µL of plasma sample was added to 100 µL of p-benzoquinone and then placed for 10 min after vortex mixing. Next, a 400 µL methanol solution containing 1 µg/mL of IS Q9 and 1mL of n-hexane was added. The mixture was vortexed for 5 min and centrifuged at 14,000 rpm for 1 min. In total, 0.825 mL of the upper extract was transferred and dried under the condition of 30 °C nitrogen, and 200 µL of ethanol equal solution was added for re dissolution, vortexed, and mixed well. An aliquot of 4.00 µL of supernatant was injected for an LC-MS/MS analysis.
# The quantification of coenzyme Q10 in the plasma samples was accomplished using an AB Sciex Triple Quad 4500 LC-MS instrument manufactured by SCIEX Co., Ltd., Framingham, MA, USA. Chromatography consisted of a Column NO.ZORBAX Eclipse Plus C18 (50 mm × 4.6 mm, 1.8 μm). The mobile phase consisted of acetonitrile and alcohol (50/50, v/v) at a flow rate of 1.0 mL min-1. An injection of 10 μL was performed and the column temperature was set to 40 °C. The detector was set at 290 nm. Multiple reaction monitoring modes (MRM) were used to perform the detection and quantification, with m/z 863.8→197.4 for coenzyme Q10. The DAS 2.0 program was used to perform the PK analysis.
# [6] = Powder dissolution in simulated intestinal fluid (SIF) with 0.5% tween 80; format: physicochemical; conditions: SIF with 0.5% tween 80, 37 °C, up to 180 min
# Description: (§1) Powder dissolution experiments were conducted in simulated intestinal fluid (SIF) and simulated gastric fluid (SGF) with 0.5% tween 80 at 37 °C using a Mini-Bath dissolution device equipped with a Julabo ED-5 heater/circulator. SIF was prepared by dissolving 6.8 g of KH2PO4 in 500 mL of water and then the pH was adjusted to 6.8 with 0.1 mol/L og NaOH solution. In total, 10 g of pancreatin was added and finally the solution was diluted to 1000 mL with water to obtain the SIF. SGF was prepared by mixing 16.4 mL of 10% HCl solution, 800 mL of water, and 10g of pepsin. Finally, the solution was diluted to 1000 mL with water to obtain the SGF. A total of 9.3 mg of cocrystal and 8.2 mg of polymorph II were added into 20 mL of the buffer solution. The stirring speed was set to 75 rpm. To minimize the size effect on the dissolution results, the ubiquinol cocrystal and polymorph II were sieved through 80-mesh sieves. Samples were collected at 5, 15, 20, 25, 30, 40, 50, 60, 80, 130, and 180 min each time, and were filtered through the 0.45 μm nylon filters. The concentration of ubiquinol was determined using HPLC. The detailed HPLC analysis method is described in Section 2.10.
# (§2) An Agilent 1260 series HPLC was used to determine the content of ubiquinol. The HPLC was equipped with a quaternary pump (G1311C), diode-array detector (G1315D), and a 4.6 mm × 100 mm, 2.7 μm packing L1 column. […]
# [7] = Powder dissolution in simulated gastric fluid (SGF) with 0.5% tween 80; format: physicochemical; conditions: SGF with 0.5% tween 80, 37 °C, up to 180 min
# Description: as §1, §2
# [8] = 200 mg/day with a main meal, 2-week supplementation, ten older men; cited from earlier work
# [9] = set-up: method as in PMID 33673604; conditions: 1500 mg/day, multiple-system atrophy; cited from earlier work
# [10] = set-up: method as in PMID 19096107; conditions: patients changed from ubiquinone to ubiquinol; cited from earlier work
# human dermal fibroblasts = tested on: human dermal fibroblasts; set-up: method as in PMID 33482334; conditions: compared to ubiquinone; cited from earlier work
# [11] = set-up: method as in doi:10.1016/j.jff.2008.09.010; conditions: single 100 mg/day dose, individuals of >60 years; cited from earlier work
smiles,measurement,setting,value
"COC1=C(OC)C(=O)C(C/C=C(\C)CC/C=C(\C)CC/C=C(\C)CC/C=C(\C)CC/C=C(\C)CC/C=C(\C)CC/C=C(\C)CC/C=C(\C)CC/C=C(\C)CCC=C(C)C)=C(C)C1=O [CoQ10, Coenzyme Q10]",orally administered absorption efficiency,[1],2–3%
NC(=O)c1cccnc1 [nicotinamide],reduction in the development of insulin-dependent diabetes mellitus,[2],50%
"COc1c(O)c(C)c(C/C=C(\C)CC/C=C(\C)CC/C=C(\C)CC/C=C(\C)CC/C=C(\C)CC/C=C(\C)CC/C=C(\C)CC/C=C(\C)CC/C=C(\C)CCC=C(C)C)c(O)c1OC [polymorph I, ubiquinol]",assay value of ubiquinol,[3],28.3%
"COc1c(O)c(C)c(C/C=C(\C)CC/C=C(\C)CC/C=C(\C)CC/C=C(\C)CC/C=C(\C)CC/C=C(\C)CC/C=C(\C)CC/C=C(\C)CC/C=C(\C)CCC=C(C)C)c(O)c1OC [polymorph II, ubiquinol]",assay value of ubiquinol,[3],94.2%
same,ubiquinol transformed to ubiquinone,[4],about 6.9%
same,AUC0–8h,[5],0.1919 µg·h/mL
same,Cmax,[5],71.2 ng/mL
same,MRT,[5],43.3 h
same,T1/2,[5],29.9 h
same,Tmax,[5],8.0 h
same,AUC (dissolution),[6],4500 µg·h/mL
same,"Cmax (dissolution, ubiquinol concentration)",[6],90000 ng/mL
same,AUC (dissolution),[7],1500 µg·h/mL
same,"Cmax (dissolution, ubiquinol concentration)",[7],30000 ng/mL
COc1c(O)c(C)c(C/C=C(\C)CC/C=C(\C)CC/C=C(\C)CC/C=C(\C)CC/C=C(\C)CC/C=C(\C)CC/C=C(\C)CC/C=C(\C)CC/C=C(\C)CCC=C(C)C)c(O)c1OC [ubiquinol],plasma CoQ10 status,[8],significant increase
same,decline in UMSARS part 2 score compared to placebo,[9],significantly smaller decline
same,tolerability,[9],well-tolerated
same,symptoms of heart failure,[10],significantly improved
same,"reverting the expression of the senescent phenotype (β-galactosidase positivity, p21, collagen type 1, elastin)",human dermal fibroblasts,more efficient
same,increase of plasma AUC0–72h compared with ubiquinone,[11],430%
same,plasma AUC0–72h compared with subjects receiving ubiquinone,[11],4.3 fold
